Read-outs that look alike come from different tables or passages of the source.
What was measured:
AhR [1] = target: AhR (Homo sapiens, UniProt P35869)
[2] = test system: p27^KIP1 in 5L (AhR +/+) cells; experiment: p27KIP1 expression by Western blotting, 5L cells; type: cell-based, mouse; conditions: 10 μM indirubins or 0.1 μM TCDD, 24 hr
[3] = test system: BP8 (AhR −/−) hepatoma cells; experiment: FACS cell cycle analysis, BP8 cells; type: cell-based, mouse; conditions: 10 μM indirubins or 100 nM TCDD, 24 hr
Experimental: Flow cytometry analysis (Coulter EPIX XL2, Beckman, Calif., USA) of cellular DNA content was performed on ethanol-fixed cell suspensions after ribonuclease A III treatment (Sigma) and propidium iodide (Sigma) staining, as previously described (French et al. (1985) Cytometry 6: 47-53). Percentages of cells in G0/G1, S and G2/M phases of cell cycle were then calculated on the basis of DNA distribution histograms provided by the software manufacturer.
Both 5L and BP8 cell lines were treated with 10 μM IO, MeIO, BIO, MeBIO or 100 nM TCDD for 24 hr.

[4] = test system: GSK-3α (Tyr276) / GSK-3β (Tyr216); experiment: Tyrosine phosphorylation of GSK-3 in SH-SY5Y cells (Western blot); type: cell-based, human; conditions: 1 μM, 12 hr
Description: GSK-3α and GSK-3β activity is enhanced by the phosphorylation of a specific tyrosine residue (Tyr276 and Tyr216, respectively) (Hughes et al. (1993) EMBO J. 12: 803-808; Dajani et al. (2003) EMBO J. 22: 494-501). The tyrosine kinase responsible for this phosphorylation in mammals is unknown, but there is some evidence that it indirectly depends on GSK-3 activity (Bhat et al. (2000) Proc. Natl. Acad. Sci. U.S.A. 97: 11074-11079; Shaw et al. (1997) FEBS Lett. 416: 307-311). […] SH-SY5Y cells were exposed to IO, MeIO, BIO and MeBIO for 12 hr and the phosphorylation of Tyr276 (GSK-3α) and Tyr216 (GSK-3β) was estimated by Western blotting with phospho-specific antibodies. […] This was accompanied by an increased level in total GSK-3β, total β-catenin, and dephospho-&catenin.

[5] = test system: BP8 (AhR −/−) hepatoma cells; experiment: Cell viability MTT assay, BP8 cells; type: cell-based, mouse; conditions: range of concentrations, 24 and 48 hr
[6] = test system: 5L (AhR +/+) hepatoma cells; experiment: Cell proliferation by direct counting, 5L cells; type: cell-based, mouse; conditions: 20 μM, 24 and 48 hr
Experimental: (§1) The protocol followed was similar to those previously described in Weiss C, Kolluri S K, Kiefer F and Göttlicher M. (1996). Exp. Cell Res., 226, 154-163, and Kolluri S K, Weiss C, Koff A and Gbttlicher M. (1999). Genes & Dev., 13, 1742-1753. The mouse 5L hepatoma cell line (AhR +/+) and BP8 (an AhR −/− subclone) were kindly provided by Dr. M. Gottlicher (Forschungszentrun Karlsruhe, Institute of Genetics, 76021 Karlsruhe, Germany). Cells were cultured in Dulbecco's modified Eagle medium (DMEM) (Biowhittaker) supplemented with 2 mM L-glutamine (Eurobio), 10% fetal calf serum (FCS), and gentamycin (Gibco BRL) at 37° C. in an atmosphere of 7% CO2. […] Control experiments were carried out using appropriate dilutions of DMSO.
(§2) The effects of IO and MeOO (20 μM) on the proliferation rate of 5L and BP8 cell lines was determined by counting directly the number of live cells after 24 and 48 hr of exposure to the indirubins (FIG. 17).

CDK5/p25 = CDK5/p25 (Homo sapiens, UniProt Q00535); experiment: CDK5/p25 kinase assay (histone H1, 15 μM ATP); type: biochemical, mammalian; conditions: read-out: IC50 CDK5/p25
[7] = test system: 5L (AhR +/+) hepatoma cells; experiment: Cell viability MTT assay, 5L cells; type: cell-based, mouse; conditions: range of concentrations, 24 and 48 hr
GSK-3α/β = GSK-3α/β kinase assay (GS-1 peptide, 15 μM ATP); type: biochemical, porcine
[8] = test system: BP8 (AhR −/−) hepatoma cells; experiment: Cell proliferation by direct counting, BP8 cells; type: cell-based, mouse; conditions: 20 μM, 24 and 48 hr
Experimental: as §1, §2

CDK1/cyclin B = CDK1/cyclin B kinase assay (histone H1, 15 μM ATP); type: biochemical, starfish (Marthasterias glacialis)
[9] = test system: 5L (AhR +/+) hepatoma cells; experiment: FACS cell cycle analysis, 5L cells; type: cell-based, mouse; conditions: 10 μM indirubins or 100 nM TCDD, 24 hr
AhR [10] = target: T1, AhR (Mus musculus, UniProt P30561); conditions: read-out: EC50 AhR (hepatoma cell line); Table 4; EGFP at 24 hours
T1 sequence (P30561 1-848): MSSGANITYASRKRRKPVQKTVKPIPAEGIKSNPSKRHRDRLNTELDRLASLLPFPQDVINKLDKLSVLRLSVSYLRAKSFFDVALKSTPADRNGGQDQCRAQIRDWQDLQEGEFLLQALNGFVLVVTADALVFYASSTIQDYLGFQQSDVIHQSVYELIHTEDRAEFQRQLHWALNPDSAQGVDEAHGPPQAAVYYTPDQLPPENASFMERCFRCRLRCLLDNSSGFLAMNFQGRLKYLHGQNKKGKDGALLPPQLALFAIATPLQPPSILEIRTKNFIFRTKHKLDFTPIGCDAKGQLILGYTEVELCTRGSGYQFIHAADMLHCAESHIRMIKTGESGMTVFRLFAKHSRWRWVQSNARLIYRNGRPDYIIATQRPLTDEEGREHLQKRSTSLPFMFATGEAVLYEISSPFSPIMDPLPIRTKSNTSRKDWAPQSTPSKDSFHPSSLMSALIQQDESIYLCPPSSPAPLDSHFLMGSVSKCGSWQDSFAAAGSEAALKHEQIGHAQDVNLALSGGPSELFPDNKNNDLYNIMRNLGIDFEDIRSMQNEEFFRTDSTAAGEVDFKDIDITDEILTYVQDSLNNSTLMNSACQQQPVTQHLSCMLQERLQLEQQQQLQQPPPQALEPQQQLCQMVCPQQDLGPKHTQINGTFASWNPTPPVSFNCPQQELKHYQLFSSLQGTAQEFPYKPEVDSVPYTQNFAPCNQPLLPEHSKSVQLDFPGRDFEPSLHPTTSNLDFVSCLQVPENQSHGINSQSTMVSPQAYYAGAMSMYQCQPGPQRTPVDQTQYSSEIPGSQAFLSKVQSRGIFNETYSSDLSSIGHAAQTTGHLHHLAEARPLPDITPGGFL

Chain of CDK5/p25 (Q00535 whole entry, species assumed): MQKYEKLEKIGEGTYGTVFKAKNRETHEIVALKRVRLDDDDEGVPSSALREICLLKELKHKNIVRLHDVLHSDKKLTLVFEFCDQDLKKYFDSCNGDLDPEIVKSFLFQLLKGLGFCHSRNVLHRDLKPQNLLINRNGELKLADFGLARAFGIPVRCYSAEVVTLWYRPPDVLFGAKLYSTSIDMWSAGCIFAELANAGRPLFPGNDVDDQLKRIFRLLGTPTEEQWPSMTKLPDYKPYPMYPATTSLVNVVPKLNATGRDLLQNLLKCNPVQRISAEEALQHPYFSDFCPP
Chain of CDK5/p25 (Q15078 99-307 partner limits assumed, species assumed): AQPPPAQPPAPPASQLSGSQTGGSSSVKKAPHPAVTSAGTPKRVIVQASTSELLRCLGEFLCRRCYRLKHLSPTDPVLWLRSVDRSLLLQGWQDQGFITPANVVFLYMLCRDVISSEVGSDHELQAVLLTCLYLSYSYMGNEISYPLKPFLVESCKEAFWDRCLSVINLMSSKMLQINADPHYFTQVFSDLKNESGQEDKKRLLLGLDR
Chain of AhR (Homo sapiens, UniProt P35869) (P35869 11-848): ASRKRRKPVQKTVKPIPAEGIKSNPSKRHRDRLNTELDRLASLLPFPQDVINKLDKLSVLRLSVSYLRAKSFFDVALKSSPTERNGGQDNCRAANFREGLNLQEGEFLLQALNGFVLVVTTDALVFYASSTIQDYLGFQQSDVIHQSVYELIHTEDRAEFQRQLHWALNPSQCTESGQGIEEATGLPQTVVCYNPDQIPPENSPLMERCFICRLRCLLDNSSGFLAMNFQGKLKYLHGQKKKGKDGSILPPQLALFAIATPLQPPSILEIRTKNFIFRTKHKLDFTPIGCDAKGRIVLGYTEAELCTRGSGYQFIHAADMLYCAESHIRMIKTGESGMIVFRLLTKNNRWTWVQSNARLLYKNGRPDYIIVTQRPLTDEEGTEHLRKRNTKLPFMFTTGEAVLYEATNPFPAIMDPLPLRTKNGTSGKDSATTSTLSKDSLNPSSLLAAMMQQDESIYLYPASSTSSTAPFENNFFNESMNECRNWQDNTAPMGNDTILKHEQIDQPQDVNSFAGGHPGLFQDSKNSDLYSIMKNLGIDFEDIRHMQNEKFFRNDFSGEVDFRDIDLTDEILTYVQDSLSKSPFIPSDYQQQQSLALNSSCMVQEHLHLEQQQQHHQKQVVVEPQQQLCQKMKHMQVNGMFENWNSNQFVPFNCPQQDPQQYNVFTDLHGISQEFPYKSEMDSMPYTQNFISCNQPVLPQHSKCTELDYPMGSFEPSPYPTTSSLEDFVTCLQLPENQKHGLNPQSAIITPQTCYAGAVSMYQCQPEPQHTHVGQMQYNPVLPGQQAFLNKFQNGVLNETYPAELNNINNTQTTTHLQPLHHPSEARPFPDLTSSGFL
Chain of AhR (Homo sapiens, UniProt P35869) (P27540 whole entry partner): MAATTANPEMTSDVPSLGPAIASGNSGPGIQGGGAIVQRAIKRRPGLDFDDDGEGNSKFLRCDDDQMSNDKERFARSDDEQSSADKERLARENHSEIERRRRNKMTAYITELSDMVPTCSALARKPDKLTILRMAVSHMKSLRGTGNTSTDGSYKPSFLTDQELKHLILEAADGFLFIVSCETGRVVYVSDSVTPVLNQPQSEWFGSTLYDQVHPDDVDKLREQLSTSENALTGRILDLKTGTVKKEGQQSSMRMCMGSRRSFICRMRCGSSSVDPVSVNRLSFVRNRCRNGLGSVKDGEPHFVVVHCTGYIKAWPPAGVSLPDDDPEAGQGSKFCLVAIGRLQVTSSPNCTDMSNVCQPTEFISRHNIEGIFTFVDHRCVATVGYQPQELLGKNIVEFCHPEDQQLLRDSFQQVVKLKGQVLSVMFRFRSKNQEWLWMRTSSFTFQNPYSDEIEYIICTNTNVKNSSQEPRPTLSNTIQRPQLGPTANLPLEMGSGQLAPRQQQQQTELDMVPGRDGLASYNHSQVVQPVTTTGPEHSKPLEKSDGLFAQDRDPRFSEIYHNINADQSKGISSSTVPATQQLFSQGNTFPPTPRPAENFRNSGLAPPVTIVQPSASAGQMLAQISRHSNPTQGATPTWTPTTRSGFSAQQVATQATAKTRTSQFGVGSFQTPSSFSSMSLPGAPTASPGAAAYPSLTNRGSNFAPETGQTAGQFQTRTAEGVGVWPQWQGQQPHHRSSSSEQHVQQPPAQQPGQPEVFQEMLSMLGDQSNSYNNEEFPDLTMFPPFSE

Q: Which results are given for `CN1C(=O)C(=C2Nc3ccccc3C2=NO)c2ccccc21` [13d, 1-Methylindirubin-3′-oxime]?
A: EC50 (AhR [1]): 0.008 µM; p27^KIP1 expression in 5L cells [2]: very effective p27^KIP1 inducers; accumulation of BP8 cells in G1 phase [3]: but not of AhR −/− cells (BP8); level of tyrosine phosphorylation of both GSK-3 isoforms [4]: None of these changes were observed; survival of BP8 cells (MTT) [5]: apparently not affected; proliferation rate of 5L cells [6]: reduced the rate of proliferation only in 5L cells; IC50 (CDK5/p25; Table 1): > 100 µM; IC50 (CDK5/p25; Table 5): > 100 µM; survival of 5L cells (MTT) [7]: apparently not affected; IC50 (GSK-3α/β; Table 1, read-out: IC50 GSK-3 α/β): > 100 µM; IC50 (GSK-3α/β; Table 4, read-out: IC50 GSK-3): > 100 µM; IC50 (GSK-3α/β; Table 5, read-out: IC50 GSK-3α/β): > 100 µM; proliferation rate of BP8 cells [8]: did not effect the proliferation; IC50 (CDK1/cyclin B; Table 1, read-out: IC50 CDK1/cyclin B): 73 µM; IC50 (CDK1/cyclin B; Table 4, read-out: IC50 CDK1/cycin B): 73 µM; IC50 (CDK1/cyclin B; Table 5, read-out: IC50 CDK1/cyclin B): 73 µM; accumulation of 5L cells in G1 phase [9]: very striking accumulation; EC50 (AhR [10]): 0.129 µM

From patent US20070276025A1, “Indirubin-Type Compounds, Compositions, and Methods for Their Use” (priority 2003, published 2007)
